Results: publication PMC7518156 (PeerJ, 2020)
Like-named read-outs stand apart in the source and are kept apart here.

Assay: Pharmacokinetics of ERL and GEF in Wistar rats after four weeks consumption of water or flavoured water (plasma, UPLC-MS/MS, non-compartmental analysis)
Type: in vivo
Conditions: for AUC(0-t): read-out: AUC0-48; for half-life: read-out: t½ (converted)
Method: Fifty healthy male Wistar rats weighing 250 ± 30 g were obtained from the animal house, College of Pharmacy, King Saud University, Riyadh, Saudi Arabia. Rats were randomly divided into ten cages (n = 5). All individualized ventilated cages (IVC) type IV used in this study were of 20″L × 11″W × 9″ in dimension capable of hosting 4–5 rats. Cages density, bedding, and sanitation frequency was similar in all cages. Cages were housed at room temperature (25 °C) and at an average relative humidity of 50%. Daily observation of all rats was required to ensure that all animals maintained good health. All animal experiments strictly followed the guidelines of the Ethical Committee for Performing Studies on Animals, King Saud University, Riyadh, Saudi Arabia, protocol number KSU-SE-19-13.
Four types of FW, (Aquafina®, a product of Pepsi-Cola®, Saudi Industrial Projects Company, Jeddah, Saudi Arabia) with different flavours, specifically berry (group II), peach (group III), lime (group IV), and pineapple FW (group V) were used. Other components found in FW used in this study include water, preservatives (sodium phosphate, potassium sorbet, sodium benzoate), acidifiers (citric acid, maleic acid), sweeteners (aspartame, potassium acesulfame, allose), acidity regulator (sodium citrate), and antioxidant agent (calcium disodium EDTA). […] The parallel design was used in this study to avoid animals’ physiological changes that could occur in the cross-over design, possibly affecting PK profiles of drug substances. All animals involved in the study were deprived from food, but not water/FW, for at least 12 h before drug administration. […] Drugs were administered to the rats between 7:00 am and 8:00 am. Rats were separately weighed from day one of water/FW consumption prior to drug administration for accurate dose calculation (Fig. S1). Blood samples (0.3 mL) were collected from each rat immediately prior to dosing (0 time) and at predetermined time points (0.5, 1, 2, 3, 5, 24, and 48 h) post drug administration. Blood samples were withdrawn and processed as described previously ([Maher et al., 2017]; [Maher, Alzoman & Shehata, 2016]; [Maher, Alzoman & Shehata, 2018]). Specifically, blood samples were withdrawn from the retro-orbital sinus into a series of heparinized tubes. Plasma was separated from collected blood samples by centrifugation at 4,500 rpm for 30 min where the centrifuge was maintained at 4 °C, and then stored at −20 °C until the day of analysis. […] A mixture of acetonitrile: water (80: 20, v/v), with 0.1% formic acid was used as a mobile phase at a flow rate of 0.2 mL/min ([Maher, Alzoman & Shehata, 2016]).
Cmax and tmax were obtained from the corresponding plasma concentration–time curve (Figs. 1A and 1B). […] The area under the plasma concentration–time curve from time 0 to the last sampling time t, 48 h (AUC0–t) was calculated using the trapezoidal rule. […] AUC0–∞ was also derived by summing up AUC0–t andthe area obtained by extrapolation from time t to ∞. The latter area was calculated from the division of the last measured concentration (Clast) by λz.
Results were presented as mean ± SD. PK parameters of all treated groups following the consumption of FW were compared with control (rats having free access to water), using one-way ANOVA and Bonferroni’s multiple comparisons test. Statistical significance was obtained with p-values ≤ 0.05.

[1] = male, Wistar, rat, plasma, oral, 20 mg/kg, PKSolver sheet, dose 20 mg/kg, +Berry, read-out: Conc
[2] = male, Wistar, rat, plasma, oral, 20 mg/kg, PKSolver sheet, dose 20 mg/kg, +Lime, read-out: Conc
[3] = male, Wistar, rat, plasma, oral, 20 mg/kg, PKSolver sheet, dose 20 mg/kg, +Peach, read-out: Conc
[4] = male, Wistar, rat, plasma, oral, 20 mg/kg, PKSolver sheet, dose 20 mg/kg, +Pineapple, read-out: Conc
[5] = male, Wistar, rat, plasma, oral, 20 mg/kg, PKSolver sheet, dose 20 mg/kg, drug alone (water), read-out: Conc
[6] = male, Wistar, rat, plasma, po, 20 mg/kg, rats, 20 mg/kg oral, +Berry FW, average, read-out: Conc*10 (ng/mL plasma)
[7] = male, Wistar, rat, plasma, po, 20 mg/kg, rats, 20 mg/kg oral, +Lime FW, average, read-out: Conc*10 (ng/mL plasma)
[8] = male, Wistar, rat, plasma, po, 20 mg/kg, rats, 20 mg/kg oral, +Peach FW, average, read-out: Conc*10 (ng/mL plasma)
[9] = male, Wistar, rat, plasma, po, 20 mg/kg, rats, 20 mg/kg oral, +Pineapple FW, average, read-out: Conc*10 (ng/mL plasma)
[10] = male, Wistar, rat, plasma, po, 20 mg/kg, rats, 20 mg/kg oral, drug alone (water), average, read-out: Conc*10 (ng/mL plasma)
[11] = male, Wistar, rat, plasma, po, 20 mg/kg, rats, 20 mg/kg oral, four weeks berry FW, n = 5, mean (SD)
[12] = male, Wistar, rat, plasma, po, 20 mg/kg, rats, 20 mg/kg oral, four weeks peach FW, n = 5, mean (SD)
[13] = male, Wistar, rat, plasma, po, 20 mg/kg, rats, 20 mg/kg oral, four weeks pineapple FW, n = 5, mean (SD)
[14] = male, Wistar, rat, plasma, po, 20 mg/kg, rats, 20 mg/kg oral, water (control), n = 5, mean (SD)
[15] = male, Wistar, rat, plasma, po, 20 mg/kg, raw data sheet, from average profile, +Berry FW
[16] = male, Wistar, rat, plasma, po, 20 mg/kg, raw data sheet, from average profile, +Lime FW
[17] = male, Wistar, rat, plasma, po, 20 mg/kg, raw data sheet, from average profile, +Peach FW
[18] = male, Wistar, rat, plasma, po, 20 mg/kg, raw data sheet, from average profile, +Pineapple FW
[19] = male, Wistar, rat, plasma, po, 20 mg/kg, raw data sheet, from average profile, drug alone (water)
[20] = rats, lime FW relative to control (water)
[21] = rats, pineapple FW relative to control (water)

- concentration at 0 h [1]: 39.1 ng/mL
- concentration at 0.5 h [1]: 99.7 ng/mL
- concentration at 1 h [1]: 152 ng/mL
- concentration at 2 h [1]: 322 ng/mL
- concentration at 3 h [1]: 191 ng/mL
- concentration at 5 h [1]: 150 ng/mL
- concentration at 24 h [1]: 81.4 ng/mL
- concentration at 48 h [1]: 30.2 ng/mL
- concentration at 0 h [2]: 157 ng/mL
- concentration at 0.5 h [2]: 387 ng/mL
- concentration at 1 h [2]: 483 ng/mL
- concentration at 2 h [2]: 574 ng/mL
- concentration at 3 h [2]: 643 ng/mL
- concentration at 5 h [2]: 490 ng/mL
- concentration at 24 h [2]: 216 ng/mL
- concentration at 48 h [2]: 95.2 ng/mL
- concentration at 0 h [3]: 44.5 ng/mL
- concentration at 0.5 h [3]: 135 ng/mL
- concentration at 1 h [3]: 202 ng/mL
- concentration at 2 h [3]: 365 ng/mL
- concentration at 3 h [3]: 213 ng/mL
- concentration at 5 h [3]: 161 ng/mL
- concentration at 24 h [3]: 85.3 ng/mL
- concentration at 48 h [3]: 25.2 ng/mL
- Cmax (male, Wistar, rat, plasma, oral, 20 mg/kg, PKSolver sheet, dose 20 mg/kg, +Pineapple): 445 ng/mL
- Tmax (male, Wistar, rat, plasma, oral, 20 mg/kg, PKSolver sheet, dose 20 mg/kg, +Pineapple, read-out: Tmax): 2 h
- concentration at 0 h [4]: 75.5 ng/mL
- concentration at 0.5 h [4]: 227 ng/mL
- concentration at 1 h [4]: 302 ng/mL
- concentration at 2 h [4]: 445 ng/mL
- concentration at 3 h [4]: 259 ng/mL
- concentration at 5 h [4]: 210 ng/mL
- concentration at 24 h [4]: 152 ng/mL
- concentration at 48 h [4]: 40.2 ng/mL
- concentration at 0 h [5]: 34.5 ng/mL
- concentration at 0.5 h [5]: 142 ng/mL
- concentration at 1 h [5]: 220 ng/mL
- concentration at 2 h [5]: 402 ng/mL
- concentration at 3 h [5]: 169 ng/mL
- concentration at 5 h [5]: 148 ng/mL
- concentration at 24 h [5]: 69.8 ng/mL
- concentration at 48 h [5]: 29.2 ng/mL
- concentration at 0 h [6]: 39.1 ng/mL
- concentration at 0.5 h [6]: 99.7 ng/mL
- concentration at 1 h [6]: 152 ng/mL
- concentration at 2 h [6]: 322 ng/mL
- concentration at 3 h [6]: 191 ng/mL
- concentration at 5 h [6]: 150 ng/mL
- concentration at 24 h [6]: 81.4 ng/mL
- concentration at 48 h [6]: 30.2 ng/mL
- concentration at 0 h [7]: 157 ng/mL
- concentration at 0.5 h [7]: 387 ng/mL
- concentration at 1 h [7]: 483 ng/mL
- concentration at 2 h [7]: 574 ng/mL
- concentration at 3 h [7]: 643 ng/mL
- concentration at 5 h [7]: 490 ng/mL
- concentration at 24 h [7]: 216 ng/mL
- concentration at 48 h [7]: 95.2 ng/mL
- concentration at 0 h [8]: 44.5 ng/mL
- concentration at 0.5 h [8]: 135 ng/mL
- concentration at 1 h [8]: 202 ng/mL
- concentration at 2 h [8]: 365 ng/mL
- concentration at 3 h [8]: 213 ng/mL
- concentration at 5 h [8]: 161 ng/mL
- concentration at 24 h [8]: 85.3 ng/mL
- concentration at 48 h [8]: 25.2 ng/mL
- concentration at 0.5 h [9]: 227 ng/mL
- concentration at 1 h [9]: 302 ng/mL
- concentration at 2 h [9]: 445 ng/mL
- concentration at 3 h [9]: 259 ng/mL
- concentration at 5 h [9]: 210 ng/mL
- concentration at 24 h [9]: 152 ng/mL
- concentration at 48 h [9]: 40.2 ng/mL
- concentration at 0 h [10]: 34.5 ng/mL
- concentration at 0.5 h [10]: 142 ng/mL
- concentration at 1 h [10]: 220 ng/mL
- concentration at 2 h [10]: 402 ng/mL
- concentration at 3 h [10]: 169 ng/mL
- concentration at 5 h [10]: 148 ng/mL
- concentration at 24 h [10]: 69.8 ng/mL
- concentration at 48 h [10]: 29.2 ng/mL
- AUC(0-inf) [11]: 5230 ng·h/mL
- CL/F [11]: 74.7 mL/min/kg
- AUC(0-t) [11]: 4460 ng·h/mL
- Tmax (male, Wistar, rat, plasma, po, 20 mg/kg, rats, 20 mg/kg oral, four weeks berry FW, n = 5, mean (SD), read-out: tmax): 2.33 h
- half-life [11]: 17.7 h
- half-life (male, Wistar, rat, plasma, po, 20 mg/kg, rats, 20 mg/kg oral, four weeks lime FW, n = 5, mean (SD)): 16.9 h
- AUC(0-inf) [12]: 5300 ng·h/mL
- CL/F [12]: 70.3 mL/min/kg
- Cmax [12]: 365 ng/mL
- AUC(0-t) [12]: 4740 ng·h/mL
- Tmax (male, Wistar, rat, plasma, po, 20 mg/kg, rats, 20 mg/kg oral, four weeks peach FW, n = 5, mean (SD), read-out: tmax): 2 h
- half-life [12]: 15.4 h
- Cmax [13]: 445 ng/mL
- Tmax (male, Wistar, rat, plasma, po, 20 mg/kg, rats, 20 mg/kg oral, four weeks pineapple FW, n = 5, mean (SD), read-out: tmax): 1.71 h
- half-life [13]: 17.8 h
- AUC(0-inf) [14]: 5060 ng·h/mL
- CL/F [14]: 77.3 mL/min/kg
- Cmax [14]: 406 ng/mL
- AUC(0-t) [14]: 4310 ng·h/mL
- Tmax (male, Wistar, rat, plasma, po, 20 mg/kg, rats, 20 mg/kg oral, water (control), n = 5, mean (SD), read-out: tmax): 2 h
- half-life [14]: 17.9 h
- AUC [15]: 5230 ng·h/mL
- Cmax [15]: 322 ng/mL
- Tmax (male, Wistar, rat, plasma, po, 20 mg/kg, raw data sheet, from average profile, +Berry FW, read-out: tmax): 2 h
- half-life [15]: 17.7 h
- AUC [16]: 15400 ng·h/mL
- Cmax [16]: 643 ng/mL
- half-life [16]: 16.9 h
- AUC [17]: 5300 ng·h/mL
- Cmax [17]: 365 ng/mL
- Tmax (male, Wistar, rat, plasma, po, 20 mg/kg, raw data sheet, from average profile, +Peach FW, read-out: tmax): 2 h
- half-life [17]: 15.4 h
- AUC [18]: 8170 ng·h/mL
- Cmax [18]: 445 ng/mL
- Tmax (male, Wistar, rat, plasma, po, 20 mg/kg, raw data sheet, from average profile, +Pineapple FW, read-out: tmax): 2 h
- half-life [18]: 17.8 h
- AUC [19]: 5060 ng·h/mL
- Cmax [19]: 402 ng/mL
- Tmax (male, Wistar, rat, plasma, po, 20 mg/kg, raw data sheet, from average profile, drug alone (water), read-out: tmax): 2 h
- half-life [19]: 17.9 h
- effect on exposure (AUC0–48) (rats, berry FW relative to control (water)): no effect was found
- decrease in apparent oral clearance (CL/F) [20]: 67%
- increase in AUC0–48 [20]: 203%
- increase in AUC0–∞ [20]: 203%
- increase in Cmax [20]: 58%
- increase in tmax [20]: ~50%
- decrease in apparent oral clearance (CL/F) [21]: ~40%
- increase in AUC0–48 [21]: ~65%
- increase in AUC0–∞ [21]: ~61%
- Tmax (raw data sheet, from average profile, +Lime FW): 3 h
- % change FOR C MAX (raw data sheet, +Berry FW vs drug alone): -19% FOR C MAX
- % change FOR C MAX (raw data sheet, +Lime FW vs drug alone): 60% FOR C MAX
- % change FOR C MAX (raw data sheet, +Peach FW vs drug alone): -9% FOR C MAX
- % change FOR C MAX (raw data sheet, +Pineapple FW vs drug alone): 11% FOR C MAX
Compound: COc1cc2ncnc(Nc3ccc(F)c(Cl)c3)c2cc1OCCCN1CCOCC1 [GEF, Gefitinib]
- change in t1/2 (rats, all tested FW relative to control (water)): None of the tested FW caused a significant change
